Assay results published in US20060281071A1, “Stearoyl-CoA desaturase assay” (priority 2005, published 2006).

Experiments:
Settings in all cases: Hela microsomes 100 μg, 14C-acyl-CoA, NADH (FIG. 3)
mSCD1 = target: T1, mSCD1 (Mus musculus, UniProt P13516); assay: Δ9-desaturase activity in microsomes of Hela cells over-expressing mSCD1; type: biochemical
T1 sequence (P13516 1-355): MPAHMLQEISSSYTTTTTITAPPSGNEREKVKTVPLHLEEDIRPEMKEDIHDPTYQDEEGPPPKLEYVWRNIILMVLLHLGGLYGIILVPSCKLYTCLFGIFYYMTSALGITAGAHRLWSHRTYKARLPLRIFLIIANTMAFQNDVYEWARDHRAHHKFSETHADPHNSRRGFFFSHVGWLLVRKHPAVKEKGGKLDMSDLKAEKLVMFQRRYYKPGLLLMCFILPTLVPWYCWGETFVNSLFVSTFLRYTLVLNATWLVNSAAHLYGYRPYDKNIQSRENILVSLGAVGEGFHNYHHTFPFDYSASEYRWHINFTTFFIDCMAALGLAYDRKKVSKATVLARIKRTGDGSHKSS
Protocol: (§1) HeLa cells were cultured at 37° C. in a humidified 5% CO2 atmosphere in Dulbecco's modified Eagle's medium supplemented with 10% (v/v) fetal bovine serum and penicillin/streptomycin. The cells were resuspended in cytomix buffer (120 mM KCl, 0.15 mM CaCl2, 25 mM Hepes/KOH, pH 7.6, 2 mM EGTA, 5 mM MgCl2), and 400 μl of suspension was transferred to a 0.4-cm electroporation cuvette (Invitrogen). 35 μg of pcDNA3 DNA harboring either human or mouse SCD constructs were transfected into Hela cells which have very low Δ9-desaturase activity. DNA was added to the cell suspension in the cuvette and mixed well. The mixture was then exposed to a single electric pulse of 300 V with a capacitance of 1000 microfarads using an Invitrogen pulse system. The cells were allowed to recover in culture medium at 37° C. (5% CO2 atmosphere) for 48 h before harvesting and performing SCD activity assays.
(§2) Δ9-desaturase activity: Microsomes were purified from Hela cells by differential centrifugation and resuspended in a 0.1 M potassium phosphate buffer (pH 6.8). Δ9-desaturase activity was assayed at 25° C. for 7 minutes with either [^14C] stearoyl-CoA or [^14C] palmito-CoA, 2 mM NADH, and 100 μg microsomal protein (Miyazaki, M. et al. (2001) J Biol Chem 276, 39455-39461).

mSCD2 = target: T2, mSCD2 (Mus musculus, UniProt P13011); assay: Δ9-desaturase activity in microsomes of Hela cells over-expressing mSCD2; type: biochemical
T2 sequence (P13011 1-358): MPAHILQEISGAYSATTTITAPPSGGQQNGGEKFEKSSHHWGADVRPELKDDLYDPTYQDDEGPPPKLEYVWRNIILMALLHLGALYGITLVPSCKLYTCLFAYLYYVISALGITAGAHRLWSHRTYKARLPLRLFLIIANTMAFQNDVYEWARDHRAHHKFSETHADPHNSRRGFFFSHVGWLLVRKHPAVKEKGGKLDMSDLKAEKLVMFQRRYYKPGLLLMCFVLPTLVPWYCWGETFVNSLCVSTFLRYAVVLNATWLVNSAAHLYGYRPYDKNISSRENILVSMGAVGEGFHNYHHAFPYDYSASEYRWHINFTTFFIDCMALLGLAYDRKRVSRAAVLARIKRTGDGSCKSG
Protocol: as §1, §2

mSCD4 = assay: Δ9-desaturase activity in microsomes of Hela cells over-expressing mSCD4; type: biochemical, mouse
Protocol: as §1, §2

hSCD1 = target: T3, hSCD1 (Homo sapiens, UniProt O00767); assay: Δ9-desaturase activity in microsomes of Hela cells over-expressing hSCD1; type: biochemical; design: Cloning of the full-length human and mouse SCD cDNAs: The full coding region of human SCDs; expressed in transfected cells
T3 sequence (O00767 1-359): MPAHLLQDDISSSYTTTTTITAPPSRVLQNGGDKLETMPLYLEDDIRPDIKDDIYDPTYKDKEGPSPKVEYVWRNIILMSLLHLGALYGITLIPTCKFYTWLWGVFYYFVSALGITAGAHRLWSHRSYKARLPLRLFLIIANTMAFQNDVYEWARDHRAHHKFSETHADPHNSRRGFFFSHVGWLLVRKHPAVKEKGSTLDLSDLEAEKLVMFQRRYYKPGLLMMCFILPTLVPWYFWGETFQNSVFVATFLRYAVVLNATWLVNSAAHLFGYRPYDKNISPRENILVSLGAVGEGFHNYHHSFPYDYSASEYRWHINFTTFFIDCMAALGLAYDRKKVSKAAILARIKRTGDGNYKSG
Protocol: as §1, §2

hSCD5 = target: T4, hSCD5 (Homo sapiens, UniProt Q86SK9); assay: Δ9-desaturase activity in microsomes of Hela cells over-expressing hSCD5; type: biochemical; design: Cloning of the full-length human and mouse SCD cDNAs: The full coding region of human SCDs; expressed in transfected cells
T4 sequence (Q86SK9 1-330): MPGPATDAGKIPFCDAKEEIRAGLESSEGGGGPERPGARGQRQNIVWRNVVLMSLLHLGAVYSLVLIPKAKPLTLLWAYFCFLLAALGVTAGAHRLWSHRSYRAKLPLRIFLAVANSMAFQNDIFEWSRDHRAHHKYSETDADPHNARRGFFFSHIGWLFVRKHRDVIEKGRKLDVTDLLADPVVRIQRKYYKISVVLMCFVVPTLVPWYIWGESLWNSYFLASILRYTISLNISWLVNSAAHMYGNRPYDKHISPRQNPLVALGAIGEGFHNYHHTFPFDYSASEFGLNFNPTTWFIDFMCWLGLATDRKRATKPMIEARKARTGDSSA
Protocol: as §1, §2

CCCCCCCCCCCCCCCCCC(=O)SCCNC(=O)CCNC(=O)[C@H](O)C(C)(C)COP(=O)(O)OP(=O)(O)OC[C@H]1O[C@@H](n2cnc3c(N)ncnc32)[C@H](O)[C@@H]1OP(=O)(O)O [18:0-CoA, stearoyl-CoA]
Δ9-desaturase activity towards 18:0-CoA relative to 16:0-CoA (mSCD1): 2.2 fold | Δ9-desaturase activity towards 18:0-CoA relative to 16:0-CoA (mSCD2): 1.6 fold | Δ9-desaturase activity towards 18:0-CoA relative to 16:0-CoA (mSCD4): 2.0 fold | Δ9-desaturase activity towards 18:0-CoA relative to 16:0-CoA (hSCD1): 2.2 fold | utilization of 18:0-CoA relative to 16:0-CoA (hSCD5): 6 fold
